From patent publication US10869931B2, “Polyethylene glycol-modified angiogenesis inhibitor HM-1 and application thereof” (NANJING ANJI BIOLOGICAL TECHNOLOGY CO.,LTD, priority 2016, dated 2020)
Several values for one entry are separate records, joined by “and”; a condition that tells them apart may be missing. Equal entries are not always repeated. Marks after values point to notes of the source that are not given here. Where no end group is shown, it is not given here.

How the values were obtained:
[1] = tested on: human retinal vascular endothelial cells (HRCEC); assay: MTT proliferation of human retinal vascular endothelial cells; type: cell-based; details: 48 h; for Inhibition rate: HRCEC proliferation; for A570 nm-A630 nm: HRCEC; for A570 nm-A630 nm / inhibition rate of HRCEC proliferation: MTT
Procedure, shortened: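 HRCEC seeded at 3.0×10^4 cells/mL, adhered overnight, then exposed to polypeptide dilutions for 48 h at 37° C, 5% CO2; medium-only blank control. MTT added for 4 h, formazan dissolved in DMSO. PI (%)=1−administration group/negative group; three independent repeats, mean±SD, t test.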

[2] = tested on: adjuvant arthritis (AA) SD rats; assay: Adjuvant arthritis (AA) rat model; type: in vivo; details: for Joint swelling / Left and right paw swelling / Clinical score: AA SD rats; for Clinical score: maximum score 16; for in vivo immune protection effect on adjuvant arthritis model (in words): AA rats, subcutaneous, once every three days, vs model group
[3] = in vivo
[4] = tested on: Hemangioma tumor cells; assay: MTT proliferation inhibition, hemangioma cells; type: cell-based, human; design: concentration or dose not given beside the values; details: 48 h
Procedure, shortened: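 Tumour cells plated at 2×10^4 cells/mL, attached overnight, then exposed to dilutions of mPEG-HM-1 for 48 h at 37 °C, 5% CO2. MTT added 4 h, formazan dissolved in DMSO, absorbance 570/630 nm; growth inhibition = 1 − treated/untreated, three independent repeats, mean±SD.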

[5] = tested on: neovascularization in rat model of premature retinopathy; assay: Fluctuating-oxygen rat model of premature retinopathy (endothelial nuclei count); type: in vivo; details: for Cell nuclei count: day 14
Procedure: A fluctuating oxygen-induced animal model was used to randomly divide the newborn rats that were naturally delivered on the same day (within 12 hours) into three groups: the oxygenated model group, the oxygenated treatment group, and the normal control group. The oxygenated model group was subdivided into three subgroup models and along with the oxygenated treatment group was placed in a semi-closed oxygen chamber made of plexiglass. The chamber was connected to medical oxygen, and the oxygen analyzer was adjusted to a concentration of 80%±2%. After 24 hours, Nitrogen gas was introduced into the oxygen chamber, and the oxygen concentration was adjusted to 10%±2% and maintained for 24 h. This process was repeated, so that the oxygen concentration in the oxygen chamber is switched between 80% and 10% every 24 hours, and then transferred to the air for 7 days. The oxygen concentration was monitored 8 times a day, and the ambient temperature in the control cabin was 23° C.±2° C. Bedding change, adding food, changing water and replacing mother rats were performed once a day. The normal control group was placed in an animal facility environment. […] The oxygenated therapeutic components were divided into four subgroups, and on the 7th day of modeling, mPEG-SC-HM-1, mPEG2-NHS-HM-1, mPEG-ALD10k-HM-1, and mPEG-bALD-HM-1 were respectively administered by intravitreal injection. Only normal saline was administered to the oxygen model group and the control group. The administrations continued for 1 week. […] After immersion in wax, serial section at thickness of 4 μm was performed, wherein the sections were kept away from the optic disc. The sections are parallel to the sagittal plane of the cornea to the optic disc. Ten sections per eyeball were randomly selected from each eyeball to be stained with hematoxylin and eosin, and the number of vascular endothelial cells that broke through the retinal inner membrane was counted (only the vascular endothelial nucleus closely related to the inner retinal membrane was counted), and the average numbers of endothelial cells per eyeball per slice was counted.

[6] = 20 mg/kg subcutaneous once every three days
[7] = 50 μg intravitreal for 1 week from day 7, vascular endothelial nuclei per slice
[8] = 40 mg/kg subcutaneous once every three days
[9] = 80 mg/kg subcutaneous once every three days
[10] = 10 mg/kg subcutaneous once every three days
[11] = 25 μg intravitreal for 1 week from day 7, vascular endothelial nuclei breaking through inner retinal membrane per slice

Substance | Inhibition rate ([1]; 40 μg/mL) | A570 nm-A630 nm ([1]; 40 μg/mL) | Inhibition rate ([1]; 60 μg/mL) | A570 nm-A630 nm ([1]; 60 μg/mL) | Inhibition rate ([1]; 80 μg/mL) | A570 nm-A630 nm ([1]; 80 μg/mL) | AUC0-∞ [3] [mg/L/h] | CL [3] [mL/min/kg] | MRT0-∞ [3] [h] | T1/2β (half-life) [3] [h] | rate of growth inhibition [4] [%] | Inhibition rate ([1]; 20 μg/mL) [%*] | A570 nm-A630 nm ([1]; 20 μg/mL) | Joint swelling [2, 10] [mm] | Left and right paw swelling [2, 10] [mm] | Clinical score [2, 10] | Cell nuclei count [5, 11] | also measured
mPEG-ALD10k-Arg-Gly-Ala-Asp-Arg-Ala-Gly-Gly-Gly-Gly-Arg-Gly-Asp ({mPEG‑ALD 10 kDa}-RGADRAGGGGRGD) [mPEG-ALD10k-HM-1] | 48.34%* | 0.6771 ± 0.07904 | 58.62%** | 0.5424 ± 0.07508 | 73.89%* | 0.3422 ± 0.07412 | 5067.98 ± 9.79 | 0.425 ± 0.122 | 11.05 ± 7.68 | 16.46 ± 0.10 | 60.25 ± 14.33 |  |  |  |  |  |  | inhibition rate of HRCEC proliferation ([1]; 80 μg/mL): 73.89%; Joint swelling [2, 6]: 0.68 ± 0.15 mm; Left and right paw swelling [2, 6]: 3.72 ± 0.54 mm; Clinical score [2, 6]: 5.39 ± 1.10; in vivo immune protection effect on adjuvant arthritis model (in words) [2]: has the most significant effect; Cell nuclei count [5, 7]: 7.581 ± 1.903
mPEG-bALD10k-Arg-Gly-Ala-Asp-Arg-Ala-Gly-Gly-Gly-Gly-Arg-Gly-Asp ({mPEG‑bALD 10 kDa}-RGADRAGGGGRGD) [mPEG-bALD10k-HM-1] | 47.95%* | 0.6931 ± 0.07754 | 57.43%** | 0.5669 ± 0.07609 | 75.19%* | 0.3304 ± 0.07354 | 5108.42 ± 9.98 | 0.417 ± 0.175 | 11.97 ± 8.86 | 16.83 ± 0.13 | 55.28 ± 12.30 |  |  |  |  |  |  | inhibition rate of HRCEC proliferation ([1]; 80 μg/mL): 75.19%; Joint swelling [2, 6]: 0.69 ± 0.13 mm; Left and right paw swelling [2, 6]: 3.73 ± 0.52 mm; Clinical score [2, 6]: 5.40 ± 1.09; in vivo immune protection effect on adjuvant arthritis model (in words) [2]: has the most significant effect; Cell nuclei count [5, 7]: 7.627 ± 1.892
mPEG-ALD20k-Arg-Gly-Ala-Asp-Arg-Ala-Gly-Gly-Gly-Gly-Arg-Gly-Asp ({mPEG‑ALD 20 kDa}-RGADRAGGGGRGD) [mPEG-ALD20k-HM-1] |  |  | 46.21%* | 0.7050 ± 0.07965 | 55.90%** | 0.5780 ± 0.06987 | 5899.46 ± 6.68 | 0.215 ± 0.177 | 18.65 ± 2.57 | 22.65 ± 0.21 | 53.30 ± 16.06 |  |  |  |  |  |  | inhibition rate of HRCEC proliferation ([1]; 100 μg/mL): 68.15% and 69.12%; Inhibition rate ([1]; 100 μg/mL): 68.15%*; A570 nm-A630 nm ([1]; 100 μg/mL): 0.4175 ± 0.07301; Joint swelling [2, 8]: 0.76 ± 0.21 mm; Left and right paw swelling [2, 8]: 3.77 ± 0.62 mm; Clinical score [2, 8]: 5.67 ± 1.08; Cell nuclei count ([5]; 100 μg intravitreal for 1 week from day 7, vascular endothelial nuclei per slice): 7.036 ± 1.315; vascular endothelial cell nuclei count ([5]; neonatal rats, 100 μg intravitreal, 1 week): 7.036±1.315
mPEG-bALD40k-Arg-Gly-Ala-Asp-Arg-Ala-Gly-Gly-Gly-Gly-Arg-Gly-Asp ({mPEG‑bALD 40 kDa}-RGADRAGGGGRGD) [mPEG-bALD40k-HM-1] |  |  |  |  | 44.81%* | 0.7349 ± 0.07082 | 5065.72 ± 9.56 | 0.11 ± 0.11 | 16.75 ± 3.29 | 43.88 ± 0.20 | 48.69 ± 12.72 |  |  |  |  |  |  | Inhibition rate ([1]; 100 μg/mL): 55.03%**; A570 nm-A630 nm ([1]; 100 μg/mL): 0.5988 ± 0.07291; Inhibition rate ([1]; 120 μg/mL): 63.12%*; A570 nm-A630 nm ([1]; 120 μg/mL): 0.4911 ± 0.07534; Joint swelling [2, 9]: 0.74 ± 0.18 mm; Left and right paw swelling [2, 9]: 3.81 ± 0.62 mm; Clinical score [2, 9]: 5.78 ± 1.05; Cell nuclei count ([5]; 200 μg intravitreal for 1 week from day 7, vascular endothelial nuclei per slice): 8.539 ± 2.218
mPEG-bALD5k-Arg-Gly-Ala-Asp-Arg-Ala-Gly-Gly-Gly-Gly-Arg-Gly-Asp ({mPEG‑bALD 5 kDa}-RGADRAGGGGRGD) [mPEG-bALD5k-HM-1] | 50.48%** | 0.6594 ± 0.08003 | 62.77%* | 04958 ± 0.07902 |  |  | 4782.29 ± 11.37 | 0.83 ± 0.162 | 8.46 ± 6.95 | 9.35 ± 0.12 | 40.29 ± 12.16 | 41.82 | 0.7747 ± 0.08752 | 0.73 ± 0.18 | 3.94 ± 0.65 | 5.92 ± 1.11 | 8.852 ± 2.933 | 
mPEG2-NHS5k-Arg-Gly-Ala-Asp-Arg-Ala-Gly-Gly-Gly-Gly-Arg-Gly-Asp ({mPEG2‑NHS 5 kDa}-RGADRAGGGGRGD) [mPEG2-NHS5k-HM-1] | 50.65%** | 0.6523 ± 0.08688 | 61.08%* | 0.5144 ± 0.08531 |  |  | 4789.25 ± 12.08 | 0.878 ± 0.187 | 8.02 ± 5.04 | 8.85 ± 0.10 | 42.78 ± 12.50 | 40.94 | 0.7807 ± 0.09103 | 0.73 ± 0.16 | 3.91 ± 0.73 | 5.92 ± 1.04 | 9.212 ± 3.134 | 
mPEG-ALD5k-Arg-Gly-Ala-Asp-Arg-Ala-Gly-Gly-Gly-Gly-Arg-Gly-Asp ({mPEG‑ALD 5 kDa}-RGADRAGGGGRGD) [mPEG-ALD5k-HM-1] | 51.93%** | 0.6301 ± 0.08011 | 61.53%* | 05042 ± 0.08135 |  |  | 4986.29 ± 10.16 | 0.843 ± 0.157 | 8.15 ± 4.21 | 9.13 ± 0.11 | 43.89 ± 14.14 | 42.02 | 0.7599 ± 0.08933 | 0.72 ± 0.17 | 3.92 ± 0.67 | 5.91 ± 1.09 | 8.927 ± 2.902 | 
